Source: patent US11702422B2, “Imidazopyridazines as modulators of IL-17” (Janssen Pharmaceutica NV, priority 2020, dated 2023)

How the values were obtained:
[1] = biological target: IL-17A(FLAG-Tagged): IL-17RA(His-Tagged) (Homo sapiens, UniProt Q16552, K93Q); assay: IL-17A(FLAG-Tagged): IL-17RA(His-Tagged) Binding Disruption Eu-HTRF Assay; settings: IL-17A/IL-17RA binding disruption, simple average if tested more than once
In short: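 IC50 comes from a one-site competition fit of the HTRF 665/620 nm ratio. Compound dilutions (2-fold, 22 points) were held 1 h rt with FLAG-tagged IL-17A dimer, then His-tagged IL-17RA plus Eu-cryptate anti-FLAG and D2 anti-His antibodies were added for 2 h rt.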

[2] = test system: IL-17A-induced G-CSF production in human normal keratinocyte (NHK); assay: NHK Assay: IL-17A-induced G-CSF production in human normal keratinocytes; assay type: cell-based; settings: Homo sapiens, Keratinocyte, 24 h, adult normal human keratinocytes, IL-17A 5 ng/mL, simple average if tested more than once
In short: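 Inhibition of IL-17A-driven G-CSF release is measured in adult keratinocytes stimulated for 24 h at 37° C with 5 ng/mL human IL-17A that had been pre-incubated with compound for 1 h. IC50 comes from HTRF G-CSF levels; cell viability is checked in parallel by luminescent ATP assay.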

UniProt Q16552, sequence (Q16552 with tags, fused parts or gaps K93Q): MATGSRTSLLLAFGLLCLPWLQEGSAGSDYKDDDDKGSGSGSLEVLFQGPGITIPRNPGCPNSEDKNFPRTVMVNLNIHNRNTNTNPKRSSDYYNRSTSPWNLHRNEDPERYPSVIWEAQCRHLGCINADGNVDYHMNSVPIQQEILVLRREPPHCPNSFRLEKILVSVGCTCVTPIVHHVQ

SMILES	IC50 [1] [nM]	IC50 [2] [nM]
O=C(CCC(F)(F)F)N[C@@H](c1cnn2cc([C@@H](NC(=O)c3cccc(OCC(F)F)n3)C3CCC(F)(F)CC3)nc2c1)C1CC1 [Example 201, N—((S)-(7-((R)-Cyclopropyl(4,4,4-trifluorobutanamido)methyl)imidazo[1,2-b]pyridazin-2-yl)(4,4-difluorocyclohexyl)methyl)-6-(2,2-difluoroethoxy)picolinamide]	470	2200
O=C(CCC(F)(F)F)N[C@@H](c1cnn2cc([C@@H](NC(=O)c3cc(C(F)(F)F)ncn3)C3CCC(F)(F)CC3)nc2c1)C1CC1 [Example 202, N—((S)-(7-((R)-Cyclopropyl(4,4,4-trifluorobutanamido)methyl)imidazo[1,2-b]pyridazin-2-yl)(4,4-difluorocyclohexyl)methyl)-6-(trifluoromethyl)pyrimidine-4-carboxamide]	440	2300
O=C(CCC(F)(F)F)N[C@@H](c1cnn2cc([C@@H](NC(=O)c3cccc(OCC(F)(F)F)n3)C3CCC(F)(F)CC3)nc2c1)C1CC1 [Example 203, N—((S)-(7-((R)-Cyclopropyl(4,4,4-trifluorobutanamido)methyl)imidazo[1,2-b]pyridazin-2-yl)(4,4-difluorocyclohexyl)methyl)-6-(2,2,2-trifluoroethoxy)picolinamide]	190	2700
O=C(CCC(F)(F)F)N[C@@H](c1cnn2cc([C@@H](NC(=O)c3cncnc3)C3CCC(F)(F)CC3)nc2c1)C1CC1 [Example 204, N—((S)-(7-((R)-Cyclopropyl(4,4,4-trifluorobutanamido)methyl)imidazo[1,2-b]pyridazin-2-1)(4,4-difluorocyclohexyl)methyl)pyrimidine-5-carboxamide]	320	3300
CC(C)c1cccc(C(=O)N[C@H](c2cn3ncc([C@H](NC(=O)CCC(F)(F)F)C4CC4)cc3n2)C2CCC(F)(F)CC2)n1 [Example 205, N—((S)-(7-((R)-Cyclopropyl(4,4,4-trifluorobutanamido)methyl)imidazo[1,2-b]pyridazin-2-yl)(4,4-difluorocyclohexyl)methyl)-6-isopropylpicolinamide]	390	3700
Cc1ccnc(C(=O)N[C@H](c2cn3ncc([C@H](NC(=O)CCC(F)(F)F)C4CC4)cc3n2)C2CCC(F)(F)CC2)c1 [Example 206, N—((S)-(7-((R)-Cyclopropyl(4,4,4-trifluorobutanamido)methyl)imidazo[1,2-b]pyridazin-2-yl)(4,4-difluorocyclohexyl)methyl)-4-methylpicolinamide]	540	4000
O=C(CCC(F)(F)F)N[C@@H](c1cnn2cc([C@@H](NC(=O)c3ccncn3)C3CCC(F)(F)CC3)nc2c1)C1CC1 [Example 207, N—((S)-(7-((R)-Cyclopropyl(4,4,4-trifluorobutanamido)methyl)imidazo[1,2-b]pyridazin-2-yl)(4,4-difluorocyclohexyl)methyl)pyrimidine-4-carboxamide]	1800	8400
N#Cc1ccccc1C(=O)N[C@H](c1cn2ncc([C@H](NC(=O)CCC(F)(F)F)C3CC3)cc2n1)C1CCC(F)(F)CC1 [Example 208, 2-Cyano-N—((S)-(7-((R)-cyclopropyl(4,4,4-trifluorobutanamido)methyl)imidazo[1,2-b]pyridazin-2-yl)(4,4-difluorocyclohexyl)methyl)benzamide]	5300	> 20000
Cc1ccncc1C(=O)N[C@H](c1cn2ncc([C@H](NC(=O)CCC(F)(F)F)C3CC3)cc2n1)C1CCC(F)(F)CC1 [Example 209, N—((S)-(7-((R)-Cyclopropyl(4,4,4-trifluorobutanamido)methyl)imidazo[1,2-b]pyridazin-2-yl)(4,4-difluorocyclohexyl)methyl)-4-methylnicotinamide]	1400	> 20000
O=C(CCC(F)(F)F)N[C@@H](c1cnn2cc([C@@H](NC(=O)c3cncc(C(F)(F)F)n3)C3CCC(F)(F)CC3)nc2c1)C1CC1 [Example 210, N—((S)-(7-((R)-Cyclopropyl(4,4,4-trifluorobutanamido)methyl)imidazo[1,2-b]pyridazin-2-yl)(4,4-difluorocyclohexyl)methyl)-6-(trifluoromethyl)pyrazine-2-carboxamide]	620	> 20000
COc1nccc(C(=O)N[C@H](c2cn3ncc([C@H](NC(=O)CCC(F)(F)F)C4CC4)cc3n2)C2CCC(F)(F)CC2)n1 [Example 211, N—((S)-(7-((R)-Cyclopropyl(4,4,4-trifluorobutanamido)methyl)imidazo[1,2-b]pyridazin-2-_yl)(4,4-difluorocyclohexyl)methyl)-2-methoxypyrimidine-4-carboxamide]	4300	> 20000
Cc1ccnc(C(=O)N[C@H](c2cn3ncc([C@H](NC(=O)CCC(F)(F)F)C4CC4)cc3n2)C2CCC(F)(F)CC2)n1 [Example 212, N—((S)-(7-((R)-Cyclopropyl(4,4,4-trifluorobutanamido)methyl)imidazo[1,2-b]pyridazin-2-yl)(4,4-difluorocyclohexyl)methyl)-4-methylpyrimidine-2-carboxamide]	13000	> 20000
N#Cc1ccc(C(=O)N[C@H](c2cn3ncc([C@H](NC(=O)CCC(F)(F)F)C4CC4)cc3n2)C2CCC(F)(F)CC2)cc1 [Example 213, 4-Cyano-N—((S)-(7-((R)-cyclopropyl(4,4,4-trifluorobutanamido)methyl)imidazo[1,2-b]pyridazin-2-yl)(4,4-difluorocyclohexyl)methyl)benzamide]	450	20000

Further lines, with some results ahead:

IC50 [1] [nM]	SMILES	IC50 [2] [nM]
2900	Cc1cnccc1C(=O)N[C@H](c1cn2ncc([C@H](NC(=O)CCC(F)(F)F)C3CC3)cc2n1)C1CCC(F)(F)CC1 [Example 214, N—((S)-(7-((R)-Cyclopropyl(4,4,4-trifluorobutanamido)methyl)imidazo[1,2-b]pyridazin-2-yl)(4,4-difluorocyclohexyl)methyl)-3-methylisonicotinamide]	> 20000
2000	COc1cncc(C(=O)N[C@H](c2cn3ncc([C@H](NC(=O)CCC(F)(F)F)C4CC4)cc3n2)C2CCC(F)(F)CC2)n1 [Example 215, N—((S)-(7-((R)-Cyclopropyl(4,4,4-trifluorobutanamido)methyl)imidazo[1,2-b]pyridazin-2-yl)(4,4-difluorocyclohexyl)methyl)-6-methoxypyrazine-2-carboxamide]	> 20000
1600	O=C(CCC(F)(F)F)N[C@@H](c1cnn2cc([C@@H](NC(=O)c3ccnc(C4CC4)n3)C3CCC(F)(F)CC3)nc2c1)C1CC1 [Example 216, 2-Cyclopropyl-N—((S)-(7-((R)-cyclopropyl(4,4,4-trifluorobutanamido)methyl)imidazo[1,2-b]pyridazin-2-yl)(4,4-difluorocyclohexyl)methyl)pyrimidine-4-carboxamide]	> 20000
4600	O=C(CCC(F)(F)F)N[C@@H](c1cnn2cc([C@@H](NC(=O)c3nccc(C(F)(F)F)n3)C3CCC(F)(F)CC3)nc2c1)C1CC1 [Example 217, N—((S)-(7-((R)-Cyclopropyl(4,4,4-trifluorobutanamido)methyl)imidazo[1,2-b]pyridazin-2-yl)(4,4-difluorocyclohexyl)methyl)-4-(trifluoromethyl)pyrimidine-2-carboxamide]	> 20000
2000	Cc1cc(C(=O)N[C@H](c2cn3ncc([C@H](NC(=O)CCC(F)(F)F)C4CC4)cc3n2)C2CCC(F)(F)CC2)ncn1 [Example 218, N—((S)-(7-((R)-Cyclopropyl(4,4,4-trifluorobutanamido)methyl)imidazo[1,2-b]pyridazin-2-yl)(4,4-difluorocyclohexyl)methyl)-6-methylpyrimidine-4-carboxamide]	> 20000
2100	Cc1nccnc1C(=O)N[C@H](c1cn2ncc([C@H](NC(=O)CCC(F)(F)F)C3CC3)cc2n1)C1CCC(F)(F)CC1 [Example 219, N—((S)-(7-((R)-Cyclopropyl(4,4,4-trifluorobutanamido)methyl)imidazo[1,2-b]pyridazin-2-yl)(4,4-difluorocyclohexyl)methyl)-3-methylpyrazine-2-carboxamide]	> 20000
15000	Cc1cncc(C(=O)N[C@H](c2cn3ncc([C@H](NC(=O)CCC(F)(F)F)C4CC4)cc3n2)C2CCC(F)(F)CC2)n1 [Example 220, N—((S)-(7-((R)-Cyclopropyl(4,4,4-trifluorobutanamido)methyl)imidazo[1,2-b]pyridazin-2-yl)(4,4-difluorocyclohexyl)methyl)-6-methylpyrazine-2-carboxamide]	> 20000
16000	O=C(CCC(F)(F)F)N[C@@H](c1cnn2cc([C@@H](NC(=O)c3cccc(C(F)(F)F)n3)C3CCC(F)(F)CC3)nc2c1)C1CC1 [Example 221, N—((S)-(7-((R)-Cyclopropyl(4,4,4-trifluorobutanamido)methyl)imidazo[1,2-b]pyridazin-2-yl)(4,4-difluorocyclohexyl)methyl)-6-(trifluoromethyl)picolinamide]	> 20000
1000	Cc1ncncc1C(=O)N[C@H](c1cn2ncc([C@H](NC(=O)CCC(F)(F)F)C3CC3)cc2n1)C1CCC(F)(F)CC1 [Example 222, N—((S)-(7-((R)-Cyclopropyl(4,4,4-trifluorobutanamido)methyl)imidazo[1,2-b]pyridazin-2-yl)(4,4-difluorocyclohexyl)methyl)-4-methylpyrimidine-5-carboxamide]	> 20000
